Experiments:
Peritoneal macrophage [1] = experiment: Antiinflammatory activity in ICR mouse primary peritoneal macrophages assessed as inhibition of LPS-induced TNFalpha production at 20 uM preincubated for 60 mins followed by LPS stimulation and measured after 24 hrs by ELISA relative to control; type: functional
Peritoneal macrophage [2] = experiment: Antiinflammatory activity in ICR mouse primary peritoneal macrophages assessed as inhibition of LPS-induced IL-6 production at 20 uM preincubated for 60 mins followed by LPS stimulation and measured after 24 hrs by ELISA relative to control; type: functional

SMILES	inhibition at 20 µM (Peritoneal macrophage [1])	inhibition at 20 µM (Peritoneal macrophage [2])
O=C(CCN1CCN(CCc2ccccc2)CC1)Nc1nc(-c2ccccc2)cs1	9.1%	27.4%
O=C(CCN1CCN(Cc2cccc(F)c2)CC1)Nc1nc(-c2ccccc2)cs1	40.5%	68.5%
O=C(CCN1CCN(Cc2cccc([N+](=O)[O-])c2)CC1)Nc1nc(-c2cccc([N+](=O)[O-])c2)cs1	51.2%	76.3%
O=C(CCN1CCN(Cc2cccc([N+](=O)[O-])c2)CC1)Nc1nc(-c2ccc([N+](=O)[O-])cc2)cs1	32.4%	58.8%
O=C(CCN1CCN(Cc2ccc(Cl)cc2)CC1)Nc1nc(-c2ccccc2)cs1	52.8%	63.4%
O=C(CCN1CCN(Cc2ccc(C(F)(F)F)cc2)CC1)Nc1nc(-c2ccccc2)cs1	55.3%	69%
O=C(CCN1CCN(Cc2ccc(F)cc2)CC1)Nc1nc(-c2ccccc2)cs1	47.9%	70.9%
O=C(CCN1CCN(Cc2cccc([N+](=O)[O-])c2)CC1)Nc1nc(-c2ccccc2)cs1	64.2%	81.5%
O=C(CCN1CCN(S(=O)(=O)c2ccc([N+](=O)[O-])cc2)CC1)Nc1nc(-c2ccccc2)cs1	38.6%	40.6%
COc1cccc(CN2CCN(CCC(=O)Nc3nc(-c4ccccc4)cs3)CC2)c1	36.1%	53.8%
COc1ccc(CN2CCN(CCC(=O)Nc3nc(-c4ccccc4)cs3)CC2)cc1	40.2%	75.3%
O=C(CCN1CCN(Cc2cccc([N+](=O)[O-])c2)CC1)Nc1nc(-c2ccc(F)cc2)cs1	65.6%	86.4%
Cc1ccc(-c2csc(NC(=O)CCN3CCN(Cc4cccc([N+](=O)[O-])c4)CC3)n2)cc1	79%	75.1%
O=C(CCN1CCN(Cc2ccc([N+](=O)[O-])cc2)CC1)Nc1nc(-c2ccccc2)cs1	56.7%	76.8%
COc1ccc(S(=O)(=O)N2CCN(CCC(=O)Nc3nc(-c4ccccc4)cs3)CC2)cc1OC	37.2%	49.5%
N#Cc1ccc(CN2CCN(CCC(=O)Nc3nc(-c4ccccc4)cs3)CC2)cc1	33.7%	67.3%
O=C(CCN1CCN(Cc2cccc([N+](=O)[O-])c2)CC1)Nc1nc(-c2ccco2)cs1	65.2%	78.7%
O=C(CCN1CCN(Cc2cccc([N+](=O)[O-])c2)CC1)Nc1nc(-c2ccc(Br)cc2)cs1	71.9%	81%
O=C(CCN1CCN(Cc2c(Cl)cccc2Cl)CC1)Nc1nc(-c2ccccc2)cs1	37.1%	73.8%
Nc1cccc(CN2CCN(CCC(=O)Nc3nc(-c4ccccc4)cs3)CC2)c1	13.6%	11.5%
O=C(CCN1CCN(Cc2ccc3ccccc3c2)CC1)Nc1nc(-c2ccccc2)cs1	2.41%	18.3%
O=C(CCN1CCN(Cc2cccc([N+](=O)[O-])c2)CC1)Nc1nc(-c2ccc(C3CCCCC3)cc2)cs1	19.8%	28.5%
O=C(CCN1CCN(Cc2cccc([N+](=O)[O-])c2)CC1)Nc1nc2ccccc2s1	63.6%	64.2%
O=C(CCN1CCN(S(=O)(=O)c2ccccc2)CC1)Nc1nc(-c2ccccc2)cs1	17.6%	29.9%
